The test system of series [1] is soluble epoxide hydrolase (sEH). The series is described as follows: Fluorescent Assay for Mouse and Human Soluble Epoxide Hydrolase (CMNPC substrate). The series is classed as biochemical. The source says:
Fluorescent Assay for Mouse and Human Soluble Epoxide Hydrolase Recombinant mouse sEH (MsEH) and human sEH (HsEH) were produced in a baculovirus expression system as previously reported. Grant et al., J. Biol. Chem., 268:17628-17633 (1993); Beetham et al., Arch. Biochem. Biophys., 305:197-201 (1993). The expressed proteins were purified from cell lysate by affinity chromatography. Wixtrom et al., Anal. Biochem., 169:71-80 (1988). Protein concentration was quantified using the Pierce BCA assay using bovine serum albumin as the calibrating standard. The preparations were at least 97% pure as judged by SDS-PAGE and scanning densitometry. They contained no detectable esterase or glutathione transferase activity which can interfere with the assay. The assay was also evaluated with similar results in crude cell lysates or homogenate of tissues. The IC50s for each inhibitor were according to the following procedure: [drawing 218] […] Jones P. D. et. al.; Analytical Biochemistry 2005; 343: pp. 66-75) Bis/Tris HCl 25 mM pH 7.0 containing 0.1 mg/mL of BSA (buffer […] at 0.25 mM in DMSO. Mother solution of enzyme in buffer A (Mouse sEH at 6 μg/mL and Human sEH at 5 μg/mL). Inhibitor dissolved in DMSO at the appropriate concentration. In a black 96 well plate, fill all the wells with 150 μL of buffer A. Add 2 μL of DMSO in well A2 and A3, and then add 2 μL of inhibitor solution in A1 and A4 through A12. Add 150 μL of buffer A in row A, then mix several time and transfer 150 μL to row B. Repeat this operation up to row H. The 150 μL removed from row H is discarded. Add 20 μL of buffer A in column 1 and 2, then add 20 μL of enzyme solution to column 3 to 12. Incubate the plate for 5 minutes in the plate reader at 30° C. During incubation prepare the working solution of substrate by mixing 3.68 mL of buffer A (4×0.920 mL) with 266 μL (2×133 μL) of substrate solution). At t=0, add 30 μL of working substrate solution with multi-channel pipette labeled “Briggs 303” and start the reading ([S]final: 5 μM). Read with ex: 330 nm (20 nm) and em: 465 nm (20 nm) every 30 second for 10 minutes. The velocities are used to analyze and calculate the IC50s. Tables 4-6 show the activity of compounds when tested with the assay at 50, 500, 5000, 50000, and 500000 nM.

The test system is the same in series [2]. Described as above. Format: biochemical. Particulars: Concentration 2000 nM.

As a reminder, the melting point is the temperature, or range, at which the solid turns liquid. The % Inhibition is the drop in the measured response relative to a control, in per cent. Low readings indicate a response near the control, high ones a response far below the control.

`O=C(Nc1cccc(OCc2ccccc2)c1)C(=O)C12CC3CC(CC(C3)C1)C2` [Compound 13, 2-Adamantan-1-yl-N-(3-benzyloxy-phenyl)-2-oxo-acetamide] registered a melting point of 106 to 107 °C. In series [1] (Concentration 5000 nM), the “% Inhibition” value is on record as 86%. As for `O=C(CCC12CC3CC(CC(C3)C1)C2)C(=O)NCCc1ccc(OCc2ccccc2)cc1` [Compound 25], in series [2], the “% Inhibition” value is reported as 23%. In turn, `O=C(Nc1cccc(OCc2ccccc2)c1)C(O)C12CC3CC(CC(C3)C1)C2` (centres unmarked) [Compound 110, 2-Adamantan-1-yl-N-(3-benzyloxy-phenyl)-2-hydroxy-acetamide] returned a melting point of 130 to 132 °C. In addition, the “% Inhibition” value in series [1] (Concentration 500 nM) is 79%. Consider `O=C(Nc1ccc(-n2ccnc2)cc1)C(O)C12CC3CC(CC(C3)C1)C2` (centres unmarked) [Compound 119, 2-Adamantan-1-yl-2-hydroxy-N-(4-imidazol-1-yl-phenyl)-acetamide], for which the melting point fell in the range of 219 to 220 °C. In addition, the “% Inhibition” value in series [1] (Concentration 50000 nM) turned out to be 98%. `O=C(NC1CCN(S(=O)(=O)c2ccc(Cl)cc2)CC1)C(O)CC12CC3CC(CC(C3)C1)C2` (centres unmarked) [Compound 148, N-(1-(4-Chlorophenylsulfonyl)piperidin-4-yl)-3-adamantan-1-yl-2-hydroxypropanamide]: the “% Inhibition” value in series [1] (Concentration 5000 nM) was 76%. For the compound `O=C(NC1CCN(S(=O)(=O)c2ccc(Cl)cc2)CC1)C(O)C12CC3CC(CC(C3)C1)C2` (centres unmarked) [Compound 149, N-(1-(4-Chlorophenylsulfonyl)piperidin-4-yl)-2-adamantan-1-yl-2-hydroxyacetamide], the “% Inhibition” value in series [1] (Concentration 50 nM) stood at 95%. Consider `O=C(NCCc1ccc(OCc2ccccc2)cc1)C(O)C12CC3CC(CC(C3)C1)C2` (centres unmarked) [Compound 150, N-(4-(Benzyloxy)phenethyl)-2-adamantyl-2-hydroxyacetamide], for which the “% Inhibition” value in series [1] (Concentration 5000 nM) turned out to be 87%.

Regarding `O=C(NCCc1ccc(Oc2ccccc2)cc1)C(O)CCC12CC3CC(CC(C3)C1)C2` (centres unmarked) [Compound 151, 4-Adamantan-1-yl-2-hydroxy-N-(4-phenoxyphenethyl)butanamide], the “% Inhibition” value in series [1] (Concentration 5000 nM) is given as 90%. For `O=C(NC1CCN(S(=O)(=O)c2ccc(Cl)cc2)CC1)C(O)CCC12CC3CC(CC(C3)C1)C2` (centres unmarked) [Compound 152, N-(1-(4-Chlorophenylsulfonyl)piperidin-4-yl)-4-adamantyl-2-hydroxybutanamide], the “% Inhibition” value in series [1] (Concentration 5000 nM) is given as 98%.

As for `O=C(O)c1ccc(Oc2ccc(CCNC(=O)C(O)CCC34CC5CC(CC(C5)C3)C4)cc2)cc1` (centres unmarked) [Compound 154, 4-(4-(2-(4-Adamantan-1-yl-2-hydroxybutanamido)ethyl)phenoxy)benzoic acid], in series [1] (Concentration 5000 nM), the “% Inhibition” value is given as 81%.

On to `CNS(=O)(=O)c1ccc(CCNC(=O)C(O)CCC23CC4CC(CC(C4)C2)C3)cc1` (centres unmarked) [Compound 156, 4-Adamantan-1-yl-2-hydroxy-N-(4-(N-methylsulfamoyl)phenethyl)butanamide], for which the “% Inhibition” value in series [1] (Concentration 5000 nM) turned out to be 79%.

Turning to `O=C(NCCc1ccc(C(=O)N2CCOCC2)cc1)C(O)CCC12CC3CC(CC(C3)C1)C2` (centres unmarked) [Compound 157, 4-Adamantan-1-yl-2-hydroxy-N-(4-(morpholine-4-carbonyl)phenethyl)butanamide], in series [2], the “% Inhibition” value is given as 81%.

For `COC(=O)CCCCCCCCCCCNC(=O)C(O)c1ccc(C(F)(F)F)cc1` (centres unmarked) [Compound 158, Methyl 12-(2-hydroxy-2-(4-(trifluoromethyl)phenyl)acetamido)dodecanoate], the “% Inhibition” value in series [1] (Concentration 500 nM) is 72%. Regarding `O=C(O)CCCCCCCCCCCNC(=O)C(O)c1ccc(C(F)(F)F)cc1` (centres unmarked) [Compound 159, 12-(2-Hydroxy-2-(4-(trifluoromethyl)phenyl)acetamido)dodecanoic acid], the “% Inhibition” value in series [1] (Concentration 5000 nM) is on record as 86%. Turning to `COC(=O)CCCCCCCCCCCNC(=O)C(O)CC12CC3CC(CC(C3)C1)C2` (centres unmarked) [Compound 160, Methyl 12-(3-adamantan-1-yl-2-hydroxypropanamido)dodecanoate], the “% Inhibition” value in series [1] (Concentration 500 nM) was found to be 81%. As for `O=C(O)CCCCCCCCCCCNC(=O)C(O)CC12CC3CC(CC(C3)C1)C2` (centres unmarked) [Compound 161, 12-(3-Adamantan-1-yl-2-hydroxypropanamido)dodecanoic acid], the “% Inhibition” value in series [1] (Concentration 5000 nM) is given as 90%. Regarding `COC(=O)CCCCCCCCCCCNC(=O)C(O)CCc1ccc(C(F)(F)F)cc1` (centres unmarked) [Compound 162, Methyl 12-(2-hydroxy-4-(4-(trifluoromethyl)phenyl)butanamido)dodecanoate], the “% Inhibition” value in series [1] (Concentration 500 nM) is on record as 78%. As for `O=C(O)CCCCCCCCCCCNC(=O)C(O)CCc1ccc(C(F)(F)F)cc1` (centres unmarked) [Compound 163, 12-(2-Hydroxy-4-(4-(trifluoromethyl)phenyl)butanamido)dodecanoicacid], in series [1] (Concentration 5000 nM), the “% Inhibition” value was 89%. Same read-out and setting: then `O=C(O)CCCCCCCCCCCNC(=O)C(O)Cc1ccc(C(F)(F)F)cc1` (centres unmarked) [Compound 164, 12-(2-Hydroxy-3-(4-(trifluoromethyl)phenyl)propanamido)dodecanoicacid], with 59%. Still for that read-out and setting: then `O=C(O)CCCCCCCCCCCNC(=O)C(O)CCC12CC3CC(CC(C3)C1)C2` (centres unmarked) [Compound 165, 12-(4-Adamantan-1-yl-2-hydroxybutanamido)dodecanoic acid], with 86%.
